Article PMC2248166, “Quantitative peptide binding motifs for 19 human and mouse MHC class I molecules derived using positional scanning combinatorial peptide libraries” (Immunome Research, 2008)
Where a SMILES comes first, the peptide text is derived from it.

What follows are compounds tested against HLA B*1501 (Homo sapiens, UniProt P01889, A329T/A93T/A95T/C349S/D201E/D98Y/E187L/E204Q/E69M/E70A/K202T/N87E/Q94N/R155S/R180W/S121R/S35A/S48A/V306I/V36M/Y140S/Y91S) (assay: biochemical).
Format: binding
Work on CSCC[C@H](NC(=O)[C@H](CCCNC(=N)N)NC(=O)[C@H](CS)NC(=O)[C@@H]1CCCN1C(=O)[C@H](CO)NC(=O)[C@@H](N)CCSC)C(=O)N[C@@H](Cc1ccccc1)C(=O)N[C@@H](CO)C(=O)N[C@@H](Cc1ccccc1)C(=O)O [3102.0921] (H-MSPCRMFSF-OH) yielded an IC50 of 17 nM. With CC[C@H](C)[C@H](NC(=O)[C@@H]1CCCN1C(=O)[C@H](CCC(=O)O)NC(=O)[C@H](CC(N)=O)NC(=O)[C@H](CO)NC(=O)[C@H](CC(=O)O)NC(=O)[C@H](Cc1ccccc1)NC(=O)[C@H](CC(C)C)NC(=O)[C@@H](N)CC(C)C)C(=O)O [3102.0916] (H-LLFDSNEPI-OH) the IC50 was 16 nM. Work on CC[C@H](C)[C@H](NC(=O)[C@@H](N)CC(C)C)C(=O)N[C@@H](CC(N)=O)C(=O)N[C@@H](CC(N)=O)C(=O)NCC(=O)N[C@@H](CCCCN)C(=O)N[C@@H](CS)C(=O)N[C@H](C(=O)N[C@@H](Cc1ccccc1)C(=O)O)[C@@H](C)O [3102.0899] (H-LINNGKCTF-OH) yielded an IC50 of 62 nM. For NCCCC[C@H](NC(=O)[C@H](CCCCN)NC(=O)[C@H](CO)NC(=O)[C@@H](N)CCCCN)C(=O)N[C@@H](Cc1ccc(O)cc1)C(=O)N[C@@H](CCC(=O)O)C(=O)NCC(=O)N1CCC[C@H]1C(=O)N[C@@H](Cc1ccccc1)C(=O)O [3102.0833] (H-KSKKYEGPF-OH), the IC50 was 1.9 nM. With CC[C@H](C)[C@H](NC(=O)[C@H](C)NC(=O)[C@@H](N)Cc1ccccc1)C(=O)N[C@@H](CO)C(=O)N[C@@H](Cc1ccc(O)cc1)C(=O)N[C@@H](CS)C(=O)N[C@@H](CCCNC(=N)N)C(=O)N[C@@H](C)C(=O)N[C@@H](Cc1ccccc1)C(=O)O [3102.0920] (H-FAISYCRAF-OH) the IC50 was 76 nM. Compound CSCC[C@H](N)C(=O)N[C@@H](CC(C)C)C(=O)N[C@@H](CC(N)=O)C(=O)N[C@H](C(=O)N[C@@H](Cc1ccc(O)cc1)C(=O)NCC(=O)N[C@@H](CCC(=O)O)C(=O)NCC(=O)N[C@@H](Cc1ccccc1)C(=O)O)[C@@H](C)O [3102.0822] (H-MLNTYGEGF-OH) has an IC50 of 2.3 nM. Compound CC[C@H](C)[C@H](NC(=O)[C@H](CCC(=O)O)NC(=O)[C@H](CS)NC(=O)[C@H](CCCNC(=N)N)NC(=O)[C@@H](NC(=O)[C@@H](N)CCCCN)[C@@H](C)CC)C(=O)N[C@H](C(=O)N[C@@H](CO)C(=O)N[C@@H](Cc1ccccc1)C(=O)O)[C@@H](C)O [3102.0909] (H-KIRCEITSF-OH) has an IC50 of 4.3 nM. Work on CC[C@H](C)[C@H](NC(=O)[C@@H](N)CCSC)C(=O)N[C@@H](CCCCN)C(=O)N[C@@H](CC(N)=O)C(=O)N[C@@H](CC(C)C)C(=O)N[C@H](C(=O)N[C@@H](CCC(N)=O)C(=O)N[C@@H](CC(C)C)C(=O)N[C@@H](Cc1ccccc1)C(=O)O)[C@@H](C)O [3102.1037] (H-MIKNLTQLF-OH) yielded an IC50 of 5.7 nM. CC[C@H](C)[C@H](N)C(=O)N[C@H](C(=O)N[C@@H](Cc1ccc(O)cc1)C(=O)N[C@@H](CS)C(=O)N[C@@H](CC(C)C)C(=O)N[C@H](C(=O)N[C@H](C(=O)N[C@@H](Cc1c[nH]cn1)C(=O)N[C@@H](CCSC)C(=O)O)[C@@H](C)O)C(C)C)[C@@H](C)O [3102.0993] (H-ITYCLVTHM-OH) gave an IC50 of 25 nM. CC[C@H](C)[C@H](NC(=O)CNC(=O)[C@@H](NC(=O)[C@H](CCCCN)NC(=O)[C@@H](NC(=O)[C@@H](N)CCC(=O)O)[C@@H](C)CC)[C@@H](C)O)C(=O)N[C@@H](CO)C(=O)N[C@@H](CO)C(=O)N[C@@H](Cc1ccccc1)C(=O)O [3102.0969] (H-EIKTGISSF-OH) showed an IC50 of 90 nM. Compound CC[C@H](C)[C@H](NC(=O)[C@H](CCC(=O)O)NC(=O)[C@H](Cc1ccccc1)NC(=O)[C@H](Cc1ccccc1)NC(=O)[C@@H](NC(=O)[C@@H](N)Cc1ccc(O)cc1)C(C)C)C(=O)N[C@H](C(=O)N[C@@H](Cc1c[nH]cn1)C(=O)N[C@@H](Cc1ccccc1)C(=O)O)[C@@H](C)CC [3102.1024] (H-YVFFEIIHF-OH) has an IC50 of 0.69 nM. In the case of CC[C@H](C)[C@H](NC(=O)[C@H](CC(N)=O)NC(=O)[C@H](C)NC(=O)[C@@H](NC(=O)[C@@H](N)CC(C)C)[C@@H](C)CC)C(=O)N[C@@H](Cc1c[nH]cn1)C(=O)N[C@@H](CC(N)=O)C(=O)N[C@@H](Cc1c[nH]cn1)C(=O)N[C@@H](CCSC)C(=O)O [3102.1046] (H-LIANIHNHM-OH), the IC50 is reported as 0.67 nM. In the case of CSCC[C@H](NC(=O)[C@H](CO)NC(=O)[C@@H](NC(=O)[C@H](CC(C)C)NC(=O)[C@H](CCCCN)NC(=O)[C@H](CO)NC(=O)[C@@H](N)Cc1ccc(O)cc1)[C@@H](C)O)C(=O)N[C@@H](Cc1c[nH]cn1)C(=O)N[C@@H](Cc1ccccc1)C(=O)O [3102.0944] (H-YSKLTSMHF-OH), the IC50 is reported as 0.57 nM. CC[C@H](C)[C@H](NC(=O)[C@@H](NC(=O)[C@@H](N)Cc1ccccc1)[C@@H](C)CC)C(=O)N[C@@H](CCCCN)C(=O)N[C@@H](CO)C(=O)N[C@@H](CO)C(=O)N[C@@H](Cc1ccc(O)cc1)C(=O)N[C@H](C(=O)N[C@@H](Cc1ccccc1)C(=O)O)C(C)C [3102.0827] (H-FIIKSSYVF-OH) was tested, and the IC50 was 3.2 nM. Compound CC[C@H](C)[C@H](NC(=O)[C@@H](N)Cc1c[nH]cn1)C(=O)N[C@@H](CC(N)=O)C(=O)N[C@@H](CCCCN)C(=O)N[C@@H](CC(C)C)C(=O)N[C@@H](Cc1ccccc1)C(=O)N[C@@H](CO)C(=O)N[C@H](C(=O)N[C@@H](Cc1ccccc1)C(=O)O)C(C)C [3102.0997] (H-HINKLFSVF-OH) has an IC50 of 0.92 nM. Work on CSCC[C@H](NC(=O)[C@H](CCC(=O)O)NC(=O)[C@H](C)NC(=O)[C@H](CC(N)=O)NC(=O)[C@H](CCC(=O)O)NC(=O)[C@H](CCCCN)NC(=O)[C@H](CC(N)=O)NC(=O)[C@H](CCSC)NC(=O)[C@@H](N)CC(C)C)C(=O)O [3102.0802] (H-LMNKENAEM-OH) yielded an IC50 of 7.7 nM. CC(C)C[C@H](NC(=O)[C@H](C)NC(=O)[C@@H](NC(=O)[C@H](Cc1ccccc1)NC(=O)[C@H](CS)NC(=O)[C@H](Cc1ccccc1)NC(=O)[C@H](Cc1ccc(O)cc1)NC(=O)[C@@H](NC(=O)[C@@H](N)CC(C)C)[C@@H](C)O)C(C)C)C(=O)O [3102.1028] (H-LTYFCFVAL-OH) was tested, and the IC50 was 29 nM. Compound CC[C@H](C)[C@H](NC(=O)[C@H](CC(N)=O)NC(=O)[C@@H]1CCCN1C(=O)[C@H](CS)NC(=O)[C@@H](NC(=O)[C@@H](N)CCSC)C(C)C)C(=O)N[C@@H](CC(N)=O)C(=O)N[C@@H](C)C(=O)N[C@@H](Cc1ccccc1)C(=O)O [3102.0876] (H-MVCPNINAF-OH) has an IC50 of 22 nM. For CC(C)C[C@H](NC(=O)[C@H](Cc1ccc(O)cc1)NC(=O)[C@H](C)NC(=O)[C@@H](N)CCCCN)C(=O)N[C@@H](Cc1ccc(O)cc1)C(=O)N[C@H](C(=O)N[C@@H](CCC(=O)O)C(=O)N[C@@H](Cc1ccc(O)cc1)C(=O)N[C@@H](Cc1ccccc1)C(=O)O)[C@@H](C)O [3102.0995] (H-KAYLYTEYF-OH), the IC50 was 7.6 nM. CSCC[C@H](N)C(=O)N[C@@H](CCC(=O)O)C(=O)N[C@@H](CCCNC(=N)N)C(=O)N[C@@H](Cc1ccccc1)C(=O)N[C@@H](CC(N)=O)C(=O)N[C@@H](CS)C(=O)N[C@@H](CO)C(=O)N[C@@H](CO)C(=O)N[C@@H](Cc1ccccc1)C(=O)O [3102.0839] (H-MERFNCSSF-OH) showed an IC50 of 1.6 nM. In the case of CC[C@H](C)[C@H](NC(=O)[C@H](CO)NC(=O)[C@@H](N)CCSC)C(=O)N[C@@H](CC(=O)O)C(=O)N[C@@H](Cc1c[nH]cn1)C(=O)N[C@@H](CS)C(=O)N[C@@H](CO)C(=O)N[C@@H](CO)C(=O)N[C@@H](Cc1ccccc1)C(=O)O [3102.0989] (H-MSIDHCSSF-OH), the IC50 is reported as 0.95 nM. In the case of CC(C)C[C@H](NC(=O)[C@H](Cc1ccc(O)cc1)NC(=O)[C@H](Cc1ccccc1)NC(=O)[C@@H](NC(=O)[C@H](CC(N)=O)NC(=O)[C@H](CCCCN)NC(=O)[C@H](CO)NC(=O)[C@@H](N)CC(C)C)[C@@H](C)O)C(=O)N[C@@H](Cc1ccccc1)C(=O)O [3102.0952] (H-LSKNTFYLF-OH), the IC50 is reported as 14 nM. CC(C)C[C@H](N)C(=O)N[C@@H](C)C(=O)N[C@@H](CC(N)=O)C(=O)N[C@H](C(=O)N[C@@H](CC(N)=O)C(=O)N[C@@H](Cc1ccccc1)C(=O)N[C@@H](Cc1ccccc1)C(=O)N[C@H](C(=O)N[C@@H](Cc1ccccc1)C(=O)O)C(C)C)[C@@H](C)O [3102.0800] (H-LANTNFFVF-OH) gave an IC50 of 17 nM. With CSCC[C@H](N)C(=O)N[C@@H](Cc1ccc(O)cc1)C(=O)N[C@@H](CCCCN)C(=O)N[C@@H](CCCCN)C(=O)N[C@@H](C)C(=O)N[C@@H](CCC(=O)O)C(=O)N[C@@H](C)C(=O)N[C@@H](CO)C(=O)N[C@@H](Cc1ccccc1)C(=O)O [3102.0906] (H-MYKKAEASF-OH) the IC50 was 69 nM. Compound CC(C)C[C@H](NC(=O)[C@@H](N)CC(C)C)C(=O)N[C@@H](CO)C(=O)N[C@@H](CCCNC(=N)N)C(=O)N[C@@H](Cc1ccc(O)cc1)C(=O)N[C@@H](CC(=O)O)C(=O)N[C@@H](CCC(=O)O)C(=O)N[C@@H](Cc1c[nH]cn1)C(=O)N[C@@H](Cc1ccccc1)C(=O)O [3102.0976] (H-LLSRYDEHF-OH) has an IC50 of 54 nM. Work on CC(C)C[C@H](NC(=O)[C@H](CCCCN)NC(=O)[C@H](CCCCN)NC(=O)[C@H](CC(C)C)NC(=O)[C@@H](N)CC(C)C)C(=O)N[C@@H](CC(N)=O)C(=O)N[C@@H](CO)C(=O)N[C@@H](Cc1ccccc1)C(=O)NCC(=O)O [3102.1020] (H-LLKKLNSFG-OH) yielded an IC50 of 45 nM. CSCC[C@H](NC(=O)[C@H](C)NC(=O)[C@@H]1CCCN1C(=O)[C@@H](NC(=O)[C@H](Cc1ccc(O)cc1)NC(=O)[C@H](C)NC(=O)[C@H](CCCCN)NC(=O)[C@H](CCC(N)=O)NC(=O)[C@@H](N)CCC(=O)O)C(C)C)C(=O)O [3102.1038] (H-EQKAYVPAM-OH) was tested, and the IC50 was 0.77 nM. For CC[C@H](C)[C@H](NC(=O)[C@H](CO)NC(=O)[C@@H](NC(=O)[C@H](CS)NC(=O)[C@@H](NC(=O)[C@H](CO)NC(=O)[C@H](CCCNC(=N)N)NC(=O)[C@H](CCSC)NC(=O)[C@@H](N)CC(C)C)[C@@H](C)CC)C(C)C)C(=O)O [3102.0838] (H-LMRSICVSI-OH), the IC50 was 63 nM. Compound CSCC[C@H](NC(=O)[C@H](Cc1c[nH]cn1)NC(=O)[C@H](CCCCN)NC(=O)[C@H](CC(N)=O)NC(=O)[C@@H](NC(=O)[C@@H](N)CC(N)=O)[C@@H](C)O)C(=O)N[C@@H](CC(C)C)C(=O)N[C@@H](CCC(=O)O)C(=O)N[C@@H](Cc1ccccc1)C(=O)O [3102.1027] (H-NTNKHMLEF-OH) has an IC50 of 12 nM.
